“Also recorded” adds a separate entry of the source.
These substances were tested on NCI-60 cell lines.
Assay type: cell-based, human

Substance | Cell Line the peptide is associated with (peptide recovered from phage library selection on this NCI-60 cell line) | Cell Line with which the peptide (and its tripeptide motif) is associated | Cell Line (NCI-60 cell line the peptide and its motif are associated with) | Cell Line (NCI-60 cell line the peptide is associated with)
WRASPGM | BT-549 Breast |  |  | 
TGRVVRR |  | CCRF-CEM Leukemia |  | 
AASPHPG | T-47D Breast |  |  | 
GATGVSS |  |  | OVCAR-8 Ovarian | 
YTGSSPS |  |  | SK-OV-3-3 Ovarian | 
ASLRYYV |  | SR Leukemia |  | 
RYSMASL |  |  | SK-MEL-5 Melanoma | 
SGVSNPG | MDA-MB-231 Breast |  |  | 
TGGLHWY | TK-10 Renal |  |  | 
VLRSALQ |  |  |  | KM-12C Colon
RAHGLVC | RXF393 Renal |  |  | 
DHVSGSV | CAIK-1 Renal |  |  | 
MSAFGRL |  | EKVX-Lung |  | 
SNPGSGS |  |  | UACC62 Melanoma | 
GLVASMP |  |  | IGROV1 Ovarian | 
SLGLGGL |  |  | OVCAR-5 Ovarian | 
DGGRRSS |  | EKVX-Lung |  | 
GRSSVSD |  |  | OVCAR-8 Ovarian | 
AGGGGYH | MDA-MB-435-Breast |  |  | 
PRSSLVV |  | H460-Lung |  | 
GSSRVRW |  |  |  | HCT-15 Colon
ARGIVRV |  |  |  | SW620-Colon
RGRLALL |  |  | M14 Melanoma | 
LVSGYNG |  | Hop-92-Lung |  | 

Substance | Cell Line the peptide is associated with (peptide recovered from phage library selection on this NCI-60 cell line) | Cell Line with which the peptide (and its tripeptide motif) is associated | Cell Line (NCI-60 cell line the peptide and its motif are associated with) | Cell Line (NCI-60 cell line the peptide is associated with)
RSYPLRS |  |  |  | SW620-Colon
LYGVRYG |  | RPMI-8226-Leukemia |  | 
RVGSVQW |  |  |  | KM-12C Colon
GRERVSH | CAIK-1 Renal |  |  | 
GGSIDCC | SN12C Renal |  |  | 
NVGGGRF | NCI/ADR-RES Breast |  |  | 
HAAVMSL |  |  |  | HCT-15 Colon
FGVSQVH | CAIK-1 Renal |  |  | 
FLLSRSA | NCI/ADR-RES Breast |  |  | 
LVSYSAV | RXF393 Renal |  |  | 
ARSSHRA |  |  |  | HCT-116 Colon
GLVRRVV | CAIK-1 Renal |  |  | 
LGLRAFV |  | H322-Lung |  | 
RDLAGPS |  |  | OVCAR-4 Ovarian | 
MGMSGPS |  | CCRF-CEM Leukemia |  | 
RSSSGSG | TK-10 Renal |  |  | 
GASLTGD |  | H460-Lung |  | 
RVSSDPI |  |  | SK-OV-3-3 Ovarian | 
GRLAAGS | MCF-7 Breast |  |  | 
SFGVLSG | HS 578 T Breast |  |  | 
GSSYSGP |  |  |  | HCT-116 Colon
LGVRASP | BT-549 Breast |  |  | 
QDRVSRS |  | Hop-92-Lung |  | 
GAGRGTP |  |  |  | HT-29 Colon

Substance | Cell Line the peptide is associated with (peptide recovered from phage library selection on this NCI-60 cell line) | Cell Line with which the peptide (and its tripeptide motif) is associated | Cell Line (NCI-60 cell line the peptide and its motif are associated with) | Cell Line (NCI-60 cell line the peptide is associated with)
MQGRVIV |  |  | SK-OV-3-3 Ovarian | 
LAGGWGS |  |  |  | SF-295 CNS
WGAGFWM |  | H460-Lung |  | 
YDGRLAR |  |  |  | SNB-19 CNS; also recorded: SF-539 CNS
DLRRAGS |  |  |  | SW620-Colon
RWLSLLS |  |  |  | MALME-3M Melanoma
RRLSYHS |  |  | M14 Melanoma; also recorded: OVCAR-3 Ovarian | 
DDGRVHR | BT-549 Breast |  |  | 
RGSPAAA | MDA-MB-435-Breast |  |  | 
FRVSLGY | ACHN Renal |  |  | 
DEGLRSR |  |  |  | HCT-116 Colon
KYYGLRR |  | RPMI-8226-Leukemia |  | 
GSSRTFR |  | A549-Lung |  | 
GGLKVWR |  |  | PC3 Prostate | 
VYYALRS |  |  |  | KM-12C Colon
FGSSNRS |  |  |  | SF-268 CNS
LYGGVRY |  | A549-Lung |  | 
TWGRLGL | ACHN Renal |  |  | 
RRGSSRN |  | SR Leukemia |  | 
ERYYLRS | MCF-7 Breast |  |  | 
GEHLGGS |  | SR Leukemia |  | 
LGGAAVR | T-47D Breast |  |  | 
LEGVRLF |  | Hop-62-Lung |  | 
DGGRRTD |  |  |  | HCT-15 Colon

Substance | Cell Line the peptide is associated with (peptide recovered from phage library selection on this NCI-60 cell line) | Cell Line with which the peptide (and its tripeptide motif) is associated | Cell Line (NCI-60 cell line the peptide and its motif are associated with) | Cell Line (NCI-60 cell line the peptide is associated with)
SLVSPRT |  |  | OVCAR-5 Ovarian | 
VGSVGLG |  | Hop-62-Lung |  | 
PTGEGLR |  |  | SK-MEL-5 Melanoma | 
GGSFSGL |  | A549-Lung |  | 
DGSVLVE |  | Molt-4-Leukemia |  | 
GFVAGRT |  |  | SK-MEL-5 Melanoma | 
TWSTGGR |  |  |  | LOX-IMVI Melanoma
TRGVIGG | T-47D Breast |  |  | 
DVHARGD | NCI/ADR-RES Breast |  |  | 
LGGLSER |  |  | SK-OV-3-3 Ovarian | 
TELVSWS |  | H322-Lung |  | 
LFRWGGR |  |  | SK-MEL-28 Melanoma | 
AVDGLRL |  | SR Leukemia |  | 
FAAGAGS |  |  | 786-0 Renal | 
AIRAGSD |  | K-562-Leukemia |  | 
RASFRAG |  | SR Leukemia |  | 
VGSVSVN |  | A549-Lung |  | 
RRLSYFH |  |  |  | HT-29 Colon
SAAGRTF |  |  | SK-MEL-2 Melanoma | 
RVVGAVL | ACHN Renal |  |  | 
EMGSSRG |  |  |  | HT-29 Colon
RASYYGV | RXF393 Renal |  |  | 
